4 molecules from PMC9434784, “Synthesis and In Vitro Evaluation of a Set of 6-Deoxy-6-thio-carboranyl D-Glucoconjugates Shed Light on the Substrate Specificity of the GLUT1 Transporter” (ACS Omega, 2022) can be followed below.

Read-outs that look alike come from different tables or passages of the source.

For one test, the target named is T1, GLUT1 (Homo sapiens, UniProt P11166).
T1 construct: host or cells: CAL 27 human squamous carcinoma cells
T1 sequence (P11166 1-492): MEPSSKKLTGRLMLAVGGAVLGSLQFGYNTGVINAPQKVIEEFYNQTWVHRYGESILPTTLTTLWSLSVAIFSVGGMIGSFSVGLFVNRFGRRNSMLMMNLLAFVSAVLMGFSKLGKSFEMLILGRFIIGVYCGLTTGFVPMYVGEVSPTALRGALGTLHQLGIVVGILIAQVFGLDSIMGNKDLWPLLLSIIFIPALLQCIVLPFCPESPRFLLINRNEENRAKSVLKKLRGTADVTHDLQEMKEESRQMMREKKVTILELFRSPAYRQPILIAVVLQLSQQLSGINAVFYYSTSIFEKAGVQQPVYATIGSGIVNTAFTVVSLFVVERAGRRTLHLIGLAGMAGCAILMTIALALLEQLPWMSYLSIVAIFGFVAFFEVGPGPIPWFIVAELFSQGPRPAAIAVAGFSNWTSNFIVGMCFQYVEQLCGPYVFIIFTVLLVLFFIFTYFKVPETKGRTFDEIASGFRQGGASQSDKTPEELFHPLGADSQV
As to the kind of experiment: GLUT1 affinity cis-inhibition assay against [14C]-D-glucose in CAL 27 cells. In kind it is cell-based. Particulars: competition with 1.8 μM [14C]-D-glucose, 5 min, room temperature, 0.1–1800 μM. The source says: From the drug development perspective, it is central to understand the molecular interactions between the ligand and the transporter. For example, in a BNCT context, the selectivity and success of the treatments are directly related to the preferential uptake of boron-10 enriched delivery agents by cancer cells. In our case, the GLUT1 transporter, which is overexpressed on various cancers, is responsible for the uptake process. The clinical validity and therapeutic utility of the approach stem from the “Warburg effect”.[7],[8] Cancer cells have an impaired D-glucose metabolism while simultaneously displaying a high proliferation rate and energy demand. Together, these factors contribute to an increased D-glucose uptake in cancer cells compared to healthy cells and offer a basis for pursuing a GLUT1-targeting strategy in BNCT. Based on the available tumor imaging data obtained through the use of FDG,[38] head and neck cancers represent a promising target for our approach. Therefore, we employed the human squamous carcinoma cell line CAL 27 as a suitable model for the in vitro assessment of GLUT1-targeting delivery agents. In addition to being a relevant head and neck cancer cell line of human origin, the GLUT1-transporter has been indicated to play a key role in the aberrant growth of CAL 27 cells.[39],[40] In our previous work, we validated the GLUT1-function, quantified the GLUT1-expression, and developed a cis-inhibition assay for determining the relative affinities of GLUT1-targeting delivery agents to GLUT1 in the CAL 27 cell line.[13],[14] To allow comparison of the results of the present study to our earlier ones, we used the same protocols herein. The fully deprotected glucoconjugates 1–4 were subjected to the cis-inhibition assay, i.e., they were forced to compete for the transporter against radiolabeled [^14C]-D-glucose in order to assess their targeting capabilities from a functional point of view. A high GLUT1 affinity, i.e., a low IC50 value, is characteristic of delivery agents that are able to target the transporter in the presence of the natural substrate D-glucose in a biological milieu. […] Large differences in the IC50 values were thus noted. […] These two delivery agents display acceptable GLUT1-targeting capabilities. […] While the trend is clear, the results are surprising. The question that arises is as follows: which underlying factors contribute to these notable deviations uncovered through the experimental cis-inhibition assay?
The GLUT1 affinity assay was performed according to our previously developed protocol.[13],[14] […] Liquid scintillation counter (MicroBeta^2 counter, PerkinElmer, Waltham, MA, USA) was used to assess the radioactivity, and the IC50 values were determined by nonlinear regression analysis.

The next test has as its system CAL 27 cell line. The test can be described thus: Cellular uptake (boron delivery capacity) by ICP-MS boron quantification. In kind it is cell-based, human. As to conditions: for behaviour at GLUT1 inferred from affinity and uptake profiles: CAL 27; for Vmax (boron uptake, Michaelis–Menten) / Km: 10–400 μM; for Km: read-out: Km (boron uptake, Michaelis–Menten). Here is the method: The uptake studies were performed according to our recently reported protocol.[13],[14] […] This, however, is not a concern, as the cell-killing effect caused by the thermal neutron beam in actual BNCT treatments has a destructive radius reminiscent to the diameter of a single cell (5–9 μm in biological tissue).[46] In the uptake studies, the concentration range 10–400 μM was screened. The incubation times 5, 30, and 120 min were chosen due the optimal performance of [^14C]-D-glucose under these conditions. Since inductively-coupled plasma mass spectrometry (ICP-MS) is somewhat insensitive when it comes to quantification of the boron content, thoroughly washed cells from four wells were combined and digested before being subjected to the analysis. […] However, we noticed that the Km values were consistently higher with the S-linked carboranyl species compared to the O-linked carboranylmethyl species.[14] The higher Km value may imply that there are additional transport mechanisms involved in the uptake of the S-series delivery agents. More work is needed to ascertain these factors. Regardless, the different Km values may likewise indicate that a greater concentration, which may no longer be clinically relevant, would be required for the S-series species to reach Vmax.
The cells were first pre-incubated. The substrates were then added in different concentration (10–400 μM in 250 μL of HBSS) and incubation was continued for 5, 30, and 120 min at room temperature. Ice-cold buffer was used to quench the reaction at the set time points. Washing and lysis was carried out as mentioned above. A combined sample was prepared in an Eppendorf tube by addition of cell lysate from four wells. The combined sample was centrifuged at +4 °C. From the supernatant of every sample, 800 μL was taken and digested in 1.0 mL of HNO3 (TraceMetal grade, Fisher Chemical) for 24 h. Milli-Q water (USF Elga Purelab Ultra) was added until the sample volume was 10 mL, and the boron contents were assessed in triplicates by ICP-MS. More details on the ICP method can be found in our earlier work.[13],[14] PerkinElmer Syngistix Data Analysis Software was used for data analysis and GraphPad Prism v.5.03 software (GraphPad Software, San Diego, Ca, USA) for statistical analysis.

On to “6-Deoxy-6-thio-(1,2-dicarba-closo-dodecaboran-1-yl)-D-glucopyranose [Compound 1]”, for which, at GLUT1, the half-maximal inhibitory concentration (IC50) was found to be 127 µM. Besides, the “behaviour at GLUT1 inferred from affinity and uptake profiles” value with CAL 27 cell line is “seems to act as a GLUT1-antagonist”. Moreover, in the test with CAL 27 cell line (CAL 27, 5 min incubation), the “Vmax (boron uptake, Michaelis–Menten)” value turned out to be 1.34 μg B/mg protein and the Km amounted to 1830 µM. Further, in the test on CAL 27 cell line (CAL 27, 30 min incubation), the “Vmax (boron uptake, Michaelis–Menten)” value is on record as 0.83 μg B/mg protein and the Michaelis-Menten constant (Km) worked out at 556 µM.
`OC[C@H]1OC(O)[C@H](O)[C@@H](O)[C@@H]1O` (stereo partly drawn) [D-glucose, reference compound] came in with a half-maximal inhibitory concentration (IC50) at GLUT1 above 1000 µM.
In turn, “6-Deoxy-6-thio-(1,7-dicarba-closo-dodecaboran-1-yl)-D-glucopyranose [Compound 2]” gave a half-inhibitory concentration (IC50) at GLUT1 of 121 µM. Besides, the “behaviour at GLUT1 inferred from affinity and uptake profiles” value with CAL 27 cell line is reported as “enters the cells through the transporter at an acceptable rate”. Also, the “boron delivery capacity compared to the other delivery agents screened (BPA, BSH)” value with CAL 27 cell line (CAL 27, 10–400 μM, 5, 30 and 120 min) is “fivefold higher delivery capacity”. Further, the “Vmax (boron uptake, Michaelis–Menten)” value was 6.60 μg B/mg protein with CAL 27 cell line (CAL 27, 5 min incubation); 1.80 μg B/mg protein in the test with CAL 27 cell line (CAL 27, 30 min incubation); 2.19 μg B/mg protein in the test on CAL 27 cell line (CAL 27, 120 min incubation). Moreover, the Michaelis-Menten constant (Km) was 1810 µM in the test with CAL 27 cell line (CAL 27, 5 min incubation); 237 µM with CAL 27 cell line (CAL 27, 30 min incubation); 208 µM in the test on CAL 27 cell line (CAL 27, 120 min incubation).
With “6-Deoxy-6-thio-(1,2-dicarba-closo-dodecaboran-9-yl)-D-glucopyranose [Compound 3]”, the 50% inhibitory concentration (IC50) at GLUT1 is 982 µM. In the test with CAL 27 cell line (CAL 27, 5 min incubation), the “Vmax (boron uptake, Michaelis–Menten)” value was 0.03 μg B/mg protein and the Michaelis-Menten constant (Km) turned out to be 110 µM.
